Read-outs that look alike come from different tables or passages of the source.

For this series, the system named is human epithelial-derived cells (293T). The experiment in a line: CCK-8 test of killing ability to cells (Embodiment 14). It counts as cell-based. The procedure: According to embodiments 1-3, water-soluble pigment solubilizing carrier dye was prepared, while cationic carrier ([…]) was used. First, human epithelial-derived cells (293T) were cultured, which was divided into three groups corresponding to a polyethyleneimine-co-isopropylacrylamide (water-soluble pigment solubilizing carrier) group, a polyethyleneimine-co-isopropylacrylamide (a water-soluble pigment solubilizing carrier) dye, and a commercially available cationic carrier group; the cells were cultured with commercially available cell culture medium ([…]) for 24 hours to obtain cells in the logarithmic growth phase; at this time, the same concentration gradient of polyethyleneimine-co-isopropylacrylamide (water-soluble pigment solubilizing carrier), polyethyleneimine-co-isopropylacrylamide (a water-soluble pigment solubilizing carrier)-pigment, and commercially available cationic carrier were added to the culture dishes of the three groups of cells; after 24 hours of culture, the CCK-8 test kit was used to examine the killing ability of the three groups of systems to the cells.
In general terms: Tetrazolium assays rely on reduction of a dye to a coloured formazan, in cell work by metabolically active cells.

Regarding `CCCCCCCCCCCCOS(=O)(=O)[O-].[Na+]` [commercially available cationic carrier, sodium lauryl sulfate], the damage of cells entry (293T cells, concentration gradient, 24 hours of culture) was “cell death was rapid”.

Take “polyethyleneimine-co-isopropylacrylamide”: the damage of cells result is “hardly damaged”.

The values above are taken from patent US20190216712A1, “Hair dye composition, preparation method, and application method thereof” (SHANGHAI CLINICAL ENGINE TECHNOLOGY DEVELOPMENT CO., LTD., priority 2017, published 2019).
